# In PubChem BioAssay (NCI):
#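 Where inhibition never reached the appropriate level, the endpoint shown equals the highest concentration tested. Otherwise, values were interpolated linearly from a five-concentration, 48-hour dose response in 96-well plates. At the TGI there is no net growth.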
# Legend:
# Assay in all cases: growth of human tumour cells (NCI), 48 h
# SN12C renal = tested on: SN12C renal
# OVCAR-4 ovarian = tested on: OVCAR-4 ovarian
# EKVX NSCLC = tested on: EKVX NSCLC
# HL-60(TB) leukemia = tested on: HL-60(TB) leukemia
# HCT-116 colon = tested on: HCT-116 colon
# MOLT-4 leukemia = tested on: MOLT-4 leukemia
# SNB-19 CNS = tested on: SNB-19 CNS
# SK-MEL-5 melanoma = tested on: SK-MEL-5 melanoma
# UACC-62 melanoma = tested on: UACC-62 melanoma
# HOP-62 NSCLC = tested on: HOP-62 NSCLC
# SF-268 CNS = tested on: SF-268 CNS
# DU-145 prostate = tested on: DU-145 prostate
# TK-10 renal = tested on: TK-10 renal
# OVCAR-5 ovarian = tested on: OVCAR-5 ovarian
# M14 melanoma = tested on: M14 melanoma
# UO-31 renal = tested on: UO-31 renal
# NCI-H226 lung = tested on: NCI-H226 lung
# MDA-MB-231 breast = tested on: MDA-MB-231 breast
# KM12 colon = tested on: KM12 colon
# T-47D breast = tested on: T-47D breast
# CCRF-CEM leukemia = tested on: CCRF-CEM leukemia
# SF-295 CNS = tested on: SF-295 CNS
# MDA-N = tested on: MDA-N
# OVCAR-3 ovarian = tested on: OVCAR-3 ovarian
# NCI/ADR-RES ovarian = tested on: NCI/ADR-RES ovarian
# A549 NSCLC = tested on: A549 NSCLC
# SF-539 CNS = tested on: SF-539 CNS
# SW-620 colon = tested on: SW-620 colon
# NCI-H522 lung = tested on: NCI-H522 lung
# RXF 393 renal = tested on: RXF 393 renal
# SK-OV-3 ovarian = tested on: SK-OV-3 ovarian
# NCI-H460 lung = tested on: NCI-H460 lung
# MCF7 breast = tested on: MCF7 breast
# PC-3 prostate = tested on: PC-3 prostate
# U251 CNS = tested on: U251 CNS
# SNB-75 CNS = tested on: SNB-75 CNS
# HCC-2998 colon = tested on: HCC-2998 colon
# RPMI-8226 leukemia = tested on: RPMI-8226 leukemia
# MDA-MB-435 = tested on: MDA-MB-435
# HCT-15 colon = tested on: HCT-15 colon
# ACHN renal = tested on: ACHN renal
# OVCAR-8 ovarian = tested on: OVCAR-8 ovarian
# HS 578T breast = tested on: HS 578T breast
# IGROV1 ovarian = tested on: IGROV1 ovarian
# 786-0 renal = tested on: 786-0 renal
# A498 renal = tested on: A498 renal
# K-562 leukemia = tested on: K-562 leukemia
# UACC-257 melanoma = tested on: UACC-257 melanoma
# HT29 colon = tested on: HT29 colon
# SK-MEL-2 melanoma = tested on: SK-MEL-2 melanoma
# NCI-H23 lung = tested on: NCI-H23 lung
# SK-MEL-28 melanoma = tested on: SK-MEL-28 melanoma
# COLO 205 colon = tested on: COLO 205 colon
# LOX IMVI melanoma = tested on: LOX IMVI melanoma
# HOP-92 NSCLC = tested on: HOP-92 NSCLC
# MALME-3M melanoma = tested on: MALME-3M melanoma
# SR leukemia = tested on: SR leukemia
# CAKI-1 renal = tested on: CAKI-1 renal
structure (smiles),measurement,setting,value
CN1N=C(c2ccncc2)OC1c1ccc(Cl)cc1Cl (stereo not given),TGI,SN12C renal,> 100 µM
same,TGI,OVCAR-4 ovarian,> 100 µM
same,TGI,EKVX NSCLC,> 100 µM
same,TGI,HL-60(TB) leukemia,> 100 µM
same,TGI,HCT-116 colon,> 100 µM
same,TGI,MOLT-4 leukemia,> 100 µM
same,TGI,SNB-19 CNS,> 100 µM
same,TGI,SK-MEL-5 melanoma,> 100 µM
same,TGI,UACC-62 melanoma,76.5 µM
same,TGI,HOP-62 NSCLC,> 100 µM
same,TGI,SF-268 CNS,> 100 µM
same,TGI,DU-145 prostate,> 100 µM
same,TGI,TK-10 renal,> 100 µM
same,TGI,OVCAR-5 ovarian,> 100 µM
same,TGI,M14 melanoma,> 100 µM
same,TGI,UO-31 renal,> 100 µM
same,TGI,NCI-H226 lung,84.2 µM
same,TGI,MDA-MB-231 breast,> 100 µM
same,TGI,KM12 colon,> 100 µM
same,TGI,T-47D breast,> 100 µM
same,TGI,CCRF-CEM leukemia,> 100 µM
same,TGI,SF-295 CNS,> 100 µM
same,TGI,MDA-N,> 100 µM
same,TGI,OVCAR-3 ovarian,> 100 µM
same,TGI,NCI/ADR-RES ovarian,> 100 µM
same,TGI,A549 NSCLC,> 100 µM
same,TGI,SF-539 CNS,> 100 µM
same,TGI,SW-620 colon,> 100 µM
same,TGI,NCI-H522 lung,> 100 µM
same,TGI,RXF 393 renal,> 100 µM
same,TGI,SK-OV-3 ovarian,> 100 µM
same,TGI,NCI-H460 lung,> 100 µM
same,TGI,MCF7 breast,> 100 µM
same,TGI,PC-3 prostate,> 100 µM
same,TGI,U251 CNS,> 100 µM
same,TGI,SNB-75 CNS,55.6 µM
same,TGI,HCC-2998 colon,> 100 µM
same,TGI,RPMI-8226 leukemia,> 100 µM
same,TGI,MDA-MB-435,> 100 µM
same,TGI,HCT-15 colon,> 100 µM
same,TGI,ACHN renal,> 100 µM
same,TGI,OVCAR-8 ovarian,> 100 µM
same,TGI,HS 578T breast,> 100 µM
same,TGI,IGROV1 ovarian,> 100 µM
same,TGI,786-0 renal,> 100 µM
same,TGI,A498 renal,> 100 µM
same,TGI,K-562 leukemia,> 100 µM
same,TGI,UACC-257 melanoma,> 100 µM
same,TGI,HT29 colon,> 100 µM
same,TGI,SK-MEL-2 melanoma,> 100 µM
same,TGI,NCI-H23 lung,> 100 µM
same,TGI,SK-MEL-28 melanoma,> 100 µM
same,TGI,COLO 205 colon,> 100 µM
same,TGI,LOX IMVI melanoma,> 100 µM
COC(=O)CCCc1ccc2c(c1)CC1(Cc3ccccc3C1)C2,TGI,SN12C renal,> 100 µM
same,TGI,OVCAR-4 ovarian,> 100 µM
same,TGI,EKVX NSCLC,> 100 µM
same,TGI,HCT-116 colon,78.6 µM
same,TGI,MOLT-4 leukemia,15.5 µM
same,TGI,SK-MEL-5 melanoma,59.7 µM
same,TGI,UACC-62 melanoma,> 100 µM
same,TGI,HOP-62 NSCLC,> 100 µM
same,TGI,TK-10 renal,> 100 µM
same,TGI,OVCAR-5 ovarian,> 100 µM
same,TGI,M14 melanoma,> 100 µM
same,TGI,UO-31 renal,> 100 µM
same,TGI,NCI-H226 lung,> 100 µM
same,TGI,MDA-MB-231 breast,> 100 µM
same,TGI,HOP-92 NSCLC,> 100 µM
same,TGI,KM12 colon,> 100 µM
same,TGI,T-47D breast,> 100 µM
same,TGI,CCRF-CEM leukemia,71.6 µM
same,TGI,SF-295 CNS,> 100 µM
same,TGI,MDA-N,53.6 µM
same,TGI,OVCAR-3 ovarian,> 100 µM
same,TGI,NCI/ADR-RES ovarian,> 100 µM
same,TGI,A549 NSCLC,> 100 µM
same,TGI,SF-539 CNS,> 100 µM
same,TGI,NCI-H522 lung,> 100 µM
same,TGI,RXF 393 renal,> 100 µM
same,TGI,SK-OV-3 ovarian,> 100 µM
same,TGI,MCF7 breast,> 100 µM
same,TGI,PC-3 prostate,> 100 µM
same,TGI,U251 CNS,> 100 µM
same,TGI,HCC-2998 colon,> 100 µM
same,TGI,RPMI-8226 leukemia,85.5 µM
same,TGI,MDA-MB-435,61.1 µM
same,TGI,HCT-15 colon,97.3 µM
same,TGI,ACHN renal,> 100 µM
same,TGI,OVCAR-8 ovarian,> 100 µM
same,TGI,HS 578T breast,> 100 µM
same,TGI,IGROV1 ovarian,> 100 µM
same,TGI,786-0 renal,> 100 µM
same,TGI,A498 renal,> 100 µM
same,TGI,UACC-257 melanoma,> 100 µM
same,TGI,HT29 colon,> 100 µM
same,TGI,SK-MEL-2 melanoma,56.1 µM
same,TGI,MALME-3M melanoma,> 100 µM
same,TGI,NCI-H23 lung,> 100 µM
same,TGI,COLO 205 colon,62.5 µM
same,TGI,LOX IMVI melanoma,> 100 µM
CC(=O)Oc1cc2c[n+](C)c3c4cc(OC(C)=O)c(OC(C)=O)cc4ccc3c2cc1OC(C)=O,TGI,SN12C renal,> 100 µM
same,TGI,EKVX NSCLC,73.4 µM
same,TGI,HCT-116 colon,> 32.5 µM
same,TGI,MOLT-4 leukemia,> 100 µM
same,TGI,SNB-19 CNS,> 100 µM
same,TGI,SK-MEL-5 melanoma,> 61.4 µM
same,TGI,SR leukemia,> 100 µM
same,TGI,UACC-62 melanoma,> 100 µM
same,TGI,HOP-62 NSCLC,> 100 µM
same,TGI,SF-268 CNS,> 100 µM
same,TGI,DU-145 prostate,> 100 µM
same,TGI,TK-10 renal,> 100 µM
same,TGI,OVCAR-5 ovarian,> 50.1 µM
same,TGI,M14 melanoma,> 48.4 µM
same,TGI,UO-31 renal,9.46 µM
same,TGI,NCI-H226 lung,> 100 µM
same,TGI,HOP-92 NSCLC,> 100 µM
same,TGI,KM12 colon,> 100 µM
same,TGI,T-47D breast,> 100 µM
same,TGI,SF-295 CNS,> 57.8 µM
same,TGI,MDA-N,> 100 µM
same,TGI,NCI/ADR-RES ovarian,> 100 µM
same,TGI,A549 NSCLC,> 100 µM
same,TGI,SW-620 colon,> 100 µM
same,TGI,NCI-H522 lung,> 100 µM
same,TGI,RXF 393 renal,11 µM
same,TGI,SK-OV-3 ovarian,> 100 µM
same,TGI,NCI-H460 lung,> 100 µM
same,TGI,MCF7 breast,> 100 µM
same,TGI,PC-3 prostate,> 100 µM
same,TGI,U251 CNS,> 100 µM
same,TGI,HCC-2998 colon,> 100 µM
same,TGI,RPMI-8226 leukemia,> 100 µM
same,TGI,HCT-15 colon,> 100 µM
same,TGI,ACHN renal,> 100 µM
same,TGI,CAKI-1 renal,> 100 µM
same,TGI,OVCAR-8 ovarian,> 100 µM
same,TGI,HS 578T breast,> 100 µM
same,TGI,IGROV1 ovarian,> 100 µM
same,TGI,786-0 renal,> 100 µM
same,TGI,A498 renal,> 65.3 µM
same,TGI,K-562 leukemia,> 100 µM
same,TGI,UACC-257 melanoma,> 100 µM
same,TGI,HT29 colon,26.2 µM
same,TGI,MALME-3M melanoma,> 100 µM
same,TGI,NCI-H23 lung,> 100 µM
same,TGI,SK-MEL-28 melanoma,> 100 µM
same,TGI,COLO 205 colon,> 100 µM
same,TGI,LOX IMVI melanoma,> 100 µM
